Measured values as given in PubChem BioAssay AID2060488 (Molecular Pharmacology Branch, DTP, NCI, 2025).

Test system: 966289-007-R4-J1-PDC complex spheroid viability
Assay: Anticancer human tumor 966289-007-R4-J1-PDC patient-derived pancreatic adenocarcinoma cell line growth inhibition [GQUAD]
Settings: for IC50: curve of first compound; for viability, T/C: stronger effect = lower value
Method in brief: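 Multi-cell-type spheroids of tumor cells with HUVEC and mesenchymal stem cells, treated with drug combinations. Concentrations descend in half-log steps from near clinical Cmax, or from 10 microM where Cmax is unknown; viability read-out.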

[1] = second compound 0.0316 µM, first compound 0.0316 µM
[2] = second compound 0.0316 µM, first compound 0.1 µM
[3] = second compound 0.0316 µM, first compound 0.316 µM
[4] = second compound 0.0316 µM, first compound 1 µM
[5] = second compound 0.0316 µM, first compound 3.16 µM
[6] = second compound 0.0316 µM, first compound 10 µM
[7] = second compound 0.1 µM, first compound 0.0316 µM
[8] = second compound 0.1 µM, first compound 0.1 µM
[9] = second compound 0.1 µM, first compound 0.316 µM
[10] = second compound 0.1 µM, first compound 1 µM
[11] = second compound 0.1 µM, first compound 3.16 µM
[12] = second compound 0.1 µM, first compound 10 µM
[13] = second compound 0.316 µM, first compound 0.0316 µM
[14] = second compound 0.316 µM, first compound 0.1 µM
[15] = second compound 0.316 µM, first compound 0.316 µM
[16] = second compound 0.316 µM, first compound 1 µM
[17] = second compound 0.316 µM, first compound 3.16 µM
[18] = second compound 0.316 µM, first compound 10 µM
[19] = second compound 1 µM, first compound 0.0316 µM
[20] = second compound 1 µM, first compound 0.1 µM
[21] = second compound 1 µM, first compound 0.316 µM
[22] = second compound 1 µM, first compound 1 µM
[23] = second compound 1 µM, first compound 3.16 µM
[24] = second compound 1 µM, first compound 10 µM
[25] = second compound 3.16 µM, first compound 0.0316 µM
[26] = second compound 3.16 µM, first compound 0.1 µM
[27] = second compound 3.16 µM, first compound 0.316 µM
[28] = second compound 3.16 µM, first compound 1 µM
[29] = second compound 3.16 µM, first compound 3.16 µM
[30] = second compound 3.16 µM, first compound 10 µM
[31] = second compound 10 µM, first compound 0.0316 µM
[32] = second compound 10 µM, first compound 0.1 µM
[33] = second compound 10 µM, first compound 0.316 µM
[34] = second compound 10 µM, first compound 1 µM
[35] = second compound 10 µM, first compound 3.16 µM
[36] = second compound 10 µM, first compound 10 µM
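Further: spheroids exposed to the agents for seven days before readout.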
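Wherever viability, T/C is given: percent viability relative to DMSO vehicle control wells taken as 100%.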

For CCCS(=O)(=O)Nc1ccc(F)c(C(=O)c2c[nH]c3ncc(-c4ccc(Cl)cc4)cc23)c1F + Cc1cnc(CNC(=O)c2c(=O)c3ccc(N4CCCN(C)CC4)nc3n3c2sc2ccccc23)cn1, the IC50 (second compound 0.0316 µM) was 6.5 µM, the IC50 (second compound 0.1 µM) was under 0.0316 µM and the IC50 (second compound 0.316 µM) was under 0.0316 µM. It also gave an IC50 (second compound 1 µM) of under 0.0316 µM, an IC50 (second compound 3.16 µM) of under 0.0316 µM and an IC50 (second compound 10 µM) of under 0.0316 µM. The viability, T/C [1] was 117%, the viability, T/C [2] was 109% and the viability, T/C [3] was 111%. The viability, T/C [4] was 99.9%, the viability, T/C [5] was 89.8% and the viability, T/C [6] was 27.1%. The viability, T/C [7] was 34.8%, the viability, T/C [8] was 34.5% and the viability, T/C [9] was 32%. For the same molecule, the viability, T/C [10] was 26.7%, the viability, T/C [11] was 25.5% and the viability, T/C [12] was 16.1%. It also gave a viability, T/C [13] of 11.4%, a viability, T/C [14] of 10.7% and a viability, T/C [15] of 8.91%. For the same molecule, the viability, T/C [16] was 8.64%, the viability, T/C [17] was 9.45% and the viability, T/C [18] was 8.17%. It also gave a viability, T/C [19] of 6.02%, a viability, T/C [20] of 7.02% and a viability, T/C [21] of 5.64%. The viability, T/C [22] was 4.34%, the viability, T/C [23] was 4.77% and the viability, T/C [24] was 3.64%. For the same molecule, the viability, T/C [25] was 4.08%, the viability, T/C [26] was 4.51% and the viability, T/C [27] was 4.86%. For the same molecule, the viability, T/C [28] was 3.92%, the viability, T/C [29] was 3.36% and the viability, T/C [30] was 1.47%. The viability, T/C [31] was 0.08%, the viability, T/C [32] was 0.11% and the viability, T/C [33] was 0.13%. The viability, T/C [34] was 0.26%, the viability, T/C [35] was 0.86% and the viability, T/C [36] was 0.14%.

Cn1ncnc1[C@H]1c2n[nH]c(=O)c3cc(F)cc(c23)N[C@@H]1c1ccc(F)cc1 + CN(C)c1ccc(Nc2c3ccc(NC(=O)CCN4CCCC4)cc3nc3cc(NC(=O)CCN4CCCC4)ccc23)cc1 was tested, and the IC50 (second compound 0.0316 µM) was 0.161 µM, the IC50 (second compound 0.1 µM) was 0.164 µM and the IC50 (second compound 0.316 µM) was 0.168 µM. It also gave an IC50 (second compound 1 µM) of 0.137 µM, an IC50 (second compound 3.16 µM) of 0.104 µM and an IC50 (second compound 10 µM) of 0.0475 µM. It also gave a viability, T/C (second compound 0.0316 µM, first compound 0.000999 µM) of 107%, a viability, T/C (second compound 0.0316 µM, first compound 0.00316 µM) of 101% and a viability, T/C (second compound 0.0316 µM, first compound 0.00999 µM) of 109%. The viability, T/C [1] was 104%, the viability, T/C (second compound 0.0316 µM, first compound 0.0999 µM) was 71.7% and the viability, T/C [3] was 19%. It also gave a viability, T/C (second compound 0.1 µM, first compound 0.000999 µM) of 105%, a viability, T/C (second compound 0.1 µM, first compound 0.00316 µM) of 101% and a viability, T/C (second compound 0.1 µM, first compound 0.00999 µM) of 105%. The viability, T/C [7] was 105%, the viability, T/C (second compound 0.1 µM, first compound 0.0999 µM) was 75.2% and the viability, T/C [9] was 16.9%. It also gave a viability, T/C (second compound 0.316 µM, first compound 0.000999 µM) of 95.1%, a viability, T/C (second compound 0.316 µM, first compound 0.00316 µM) of 99.7% and a viability, T/C (second compound 0.316 µM, first compound 0.00999 µM) of 104%. For the same molecule, the viability, T/C [13] was 107%, the viability, T/C (second compound 0.316 µM, first compound 0.0999 µM) was 73.3% and the viability, T/C [15] was 21.7%. It also gave a viability, T/C (second compound 1 µM, first compound 0.000999 µM) of 95.9%, a viability, T/C (second compound 1 µM, first compound 0.00316 µM) of 97.2% and a viability, T/C (second compound 1 µM, first compound 0.00999 µM) of 104%. For the same molecule, the viability, T/C [19] was 106%, the viability, T/C (second compound 1 µM, first compound 0.0999 µM) was 62.5% and the viability, T/C [21] was 16.9%. The viability, T/C (second compound 3.16 µM, first compound 0.000999 µM) was 91.5%, the viability, T/C (second compound 3.16 µM, first compound 0.00316 µM) was 109% and the viability, T/C (second compound 3.16 µM, first compound 0.00999 µM) was 109%. The viability, T/C [25] was 104%, the viability, T/C (second compound 3.16 µM, first compound 0.0999 µM) was 51.2% and the viability, T/C [27] was 13%. It also gave a viability, T/C (second compound 10 µM, first compound 0.000999 µM) of 103%, a viability, T/C (second compound 10 µM, first compound 0.00316 µM) of 104% and a viability, T/C (second compound 10 µM, first compound 0.00999 µM) of 102%. It also gave a viability, T/C [31] of 69.1%, a viability, T/C (second compound 10 µM, first compound 0.0999 µM) of 15% and a viability, T/C [33] of 5.65%.

For CC1COCCN1c1cc(C2(S(C)(=N)=O)CC2)nc(-c2ccnc3[nH]ccc23)n1 (stereo unspecified) + Cc1[nH]c2ccc(F)cc2c1-c1nc2c3cccnc3c3ncccc3c2[nH]1, the IC50 (second compound 0.0316 µM) was 2.5 µM, the IC50 (second compound 0.1 µM) was 3.03 µM and the IC50 (second compound 0.316 µM) was 3.13 µM. It also gave an IC50 (second compound 1 µM) of 2.87 µM, an IC50 (second compound 3.16 µM) of 1.75 µM and an IC50 (second compound 10 µM) of 1.45 µM. For the same molecule, the viability, T/C [1] was 104%, the viability, T/C [2] was 91.8% and the viability, T/C [3] was 109%. The viability, T/C [4] was 90.9%, the viability, T/C [5] was 39.4% and the viability, T/C [6] was 7.57%. For the same molecule, the viability, T/C [7] was 106%, the viability, T/C [8] was 104% and the viability, T/C [9] was 105%. The viability, T/C [10] was 96.3%, the viability, T/C [11] was 48.2% and the viability, T/C [12] was 8.79%. For the same molecule, the viability, T/C [13] was 99.8%, the viability, T/C [14] was 100% and the viability, T/C [15] was 106%. The viability, T/C [16] was 101%, the viability, T/C [17] was 49.6% and the viability, T/C [18] was 6.54%. It also gave a viability, T/C [19] of 99.2%, a viability, T/C [20] of 103% and a viability, T/C [21] of 108%. For the same molecule, the viability, T/C [22] was 90.6%, the viability, T/C [23] was 46.4% and the viability, T/C [24] was 7.68%. The viability, T/C [25] was 101%, the viability, T/C [26] was 106% and the viability, T/C [27] was 107%. For the same molecule, the viability, T/C [28] was 77.5%, the viability, T/C [29] was 20.6% and the viability, T/C [30] was 5.11%. It also gave a viability, T/C [31] of 101%, a viability, T/C [32] of 100% and a viability, T/C [33] of 97.7%. It also gave a viability, T/C [34] of 69.1%, a viability, T/C [35] of 9.9% and a viability, T/C [36] of 3.37%.
